Measurements as given in US12428430B2 (BRISTOL-MYERS SQUIBB COMPANY, priority 2018, dated 2025).

The compounds below were run against hLPA1 (Homo sapiens, UniProt Q92633) (assay: LPA1 functional antagonist assay (LPA-induced calcium flux in CHO cells overexpressing human LPA1)). Settings: antagonist mode, inhibition of calcium flux induced by 10 nM LPA, read-out: hLPA1 IC50.
Type: cell-based
Design: expressed in transfected cells; host or cells: Chinese hamster ovary (CHO) cells
Protocol: The effectiveness of compounds of the present invention as LPA1 inhibitors can be determined in an LPA1 functional antagonist assay as follows:
Chinese hamster ovary cells overexpressing human LPA1 were plated overnight (15,000 cells/well) in poly-D-lysine coated 384-well microplates (Greiner bio-one, Cat #781946) in DMEM/F12 medium (Gibco, Cat #11039). Following overnight culture, cells were loaded with calcium indicator dye (AAT Bioquest Inc, Cat #34601) for 30 minutes at 37° C. The cells were then equilibrated to room temperature for 30 minutes before the assay. Test compounds solubilized in DMSO were transferred to 384 well non-binding surface plates (Corning, Cat #3575) using the Labcyte Echo acoustic dispense and diluted with assay buffer [1×HBSS with calcium/magnesium (Gibco Cat #14025-092), 20 mM HEPES (Gibco Cat #15630-080) and 0.1% fatty acid free BSA (Sigma Cat #A9205)] to a final concentration of 0.5% DMSO. Diluted compounds were added to the cells by FDSS6000 (Hamamatsu) at final concentrations ranging from 0.08 nM to 5 μM. and were then incubated for 20 min at room temperature at which time LPA (Avanti Polar Lipids Cat #857130C) was added at final concentrations of 10 nM to stimulate the cells. The compound IC50 value was defined as the concentration of test compound which inhibited 50% of the calcium flux induced by LPA alone. IC50 values were determined by fitting data to a 4-parameter logistic equation (GraphPad Prism, San Diego Calif.).

hLPA1, sequence (Q92633 whole entry): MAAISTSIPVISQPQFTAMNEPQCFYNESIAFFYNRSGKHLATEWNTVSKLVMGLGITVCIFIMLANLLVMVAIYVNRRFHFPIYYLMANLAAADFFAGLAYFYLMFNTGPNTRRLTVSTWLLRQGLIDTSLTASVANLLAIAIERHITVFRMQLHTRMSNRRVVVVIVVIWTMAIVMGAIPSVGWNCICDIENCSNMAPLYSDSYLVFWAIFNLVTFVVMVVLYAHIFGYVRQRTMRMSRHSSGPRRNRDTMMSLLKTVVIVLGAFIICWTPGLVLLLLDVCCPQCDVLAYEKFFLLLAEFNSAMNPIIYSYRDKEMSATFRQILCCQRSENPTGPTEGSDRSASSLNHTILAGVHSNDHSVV

Row | Compound | IC50 [µM]
1 | Cc1noc(-c2ccc(C34CCC(CC(=O)O)(CC3)OC4)c(F)c2)c1NC(=O)O[C@H](C)C1CC1 [Example 16, 2-(4-(4-(4-((((R)-1-cyclopropylethoxy)carbonyl)amino)-3-methylisoxazol-5-yl)-2-fluorophenyl)-2-oxabicyclo[2.2.2]octan-1-yl)acetic acid] | 0.407
2 | Cc1noc(-c2ccc(C34CCC(CC(=O)O)(CC3)OC4)cc2F)c1NC(=O)O[C@H](C)C1CC1 [Example 20, 2-(4-(4-(4-((((R)-1-cyclopropylethoxy)carbonyl)amino)-3-methylisoxazol-5-yl)-3-fluorophenyl)-2-oxabicyclo[2.2.2]octan-1-yl)acetic acid] | 0.863
3 | C[C@@H](OC(=O)Nc1c(-c2ccc(C34CCC(CC(=O)O)(CC3)OC4)c(F)c2)cnn1C)c1ccccc1 [Example 30, 2-(4-(2-fluoro-4-(1-methyl-5-((((R)-1-phenylethoxy)carbonyl)amino)-1H-pyrazol-4-yl)phenyl)-2-oxabicyclo[2.2.2]octan-1-yl)acetic acid] | 0.365
4 | C[C@@H](OC(=O)Nc1c(-c2ccc(C34CCC(CC(=O)O)(CC3)OC4)c(F)c2)cnn1C)c1ccccc1Cl [Example 31, 2-(4-(4-(5-((((R)-1-(2-chlorophenyl)ethoxy)carbonyl)amino)-1-methyl-1H-pyrazol-4-yl)-2-fluorophenyl)-2-oxabicyclo[2.2.2]octan-1-yl)acetic acid] | 0.112
5 | Cn1ncc(-c2ccc(C34CCC(CC(=O)O)(CC3)OC4)cc2)c1COC(=O)N1CC[C@H](F)C1 [Example 38, 2-(4-(4-(5-((((S)-3-fluoropyrrolidine-1-carbonyl)oxy)methyl)-1-methyl-1H-pyrazol-4-yl)phenyl)-2-oxabicyclo[2.2.2]octan-1-yl)acetic acid] | 1.9
6 | CC(C)CCN(C)C(=O)OCc1c(-c2ccc(C34CCC(CC(=O)O)(CC3)OC4)cc2)cnn1C [Example 39, 2-(4-(4-(5-(((isopentyl(methyl)carbamoyl)oxy)methyl)-1-methyl-1H-pyrazol-4-yl)phenyl)-2-oxabicyclo[2.2.2]octan-1-yl)acetic acid] | 0.52
7 | CN(Cc1ccccc1)C(=O)OCc1c(-c2ccc(C34CCC(CC(=O)O)(CC3)OC4)cc2)cnn1C [Example 40, 2-(4-(4-(5-(((benzyl(methyl)carbamoyl)oxy)methyl)-1-methyl-1H-pyrazol-4-yl)phenyl)-2-oxabicyclo[2.2.2]octan-1-yl)acetic acid] | 0.767
8 | CN(CCc1ccc(Cl)cc1)C(=O)OCc1c(-c2ccc(C34CCC(CC(=O)O)(CC3)OC4)cc2)cnn1C [Example 41, 2-(4-(4-(5-((((4-chlorophenethyl)(methyl)carbamoyl)oxy)methyl)-1-methyl-1H-pyrazol-4-yl)phenyl)-2-oxabicyclo[2.2.2]octan-1-yl)acetic acid] | 2.79
9 | CN(C(=O)OCc1c(-c2ccc(C34CCC(CC(=O)O)(CC3)OC4)c(F)c2)cnn1C)C1CCCC1 [Example 42, 2-(4-(4-(5-(((cyclopentyl(methyl)carbamoyl)oxy)methyl)-1-methyl-1H-pyrazol-4-yl)-2-fluorophenyl)-2-oxabicyclo[2.2.2]octan-1-yl)acetic acid] | 0.232
10 | CC(C)CCN(C)C(=O)OCc1c(-c2ccc(C34CCC(CC(=O)O)(CC3)OC4)c(F)c2)cnn1C [Example 43, 2-(4-(2-fluoro-4-(5-(((isopentyl(methyl)carbamoyl)oxy)methyl)-1-methyl-1H-pyrazol-4-yl)phenyl)-2-oxabicyclo[2.2.2]octan-1-yl)acetic acid] | 0.271
11 | CN(C(=O)OCc1c(-c2ccc(C34CCC(CC(=O)O)(CC3)OC4)cc2F)cnn1C)C1CCCC1 [Example 44, 2-(4-(4-(5-(((cyclopentyl(methyl)carbamoyl)oxy)methyl)-1-methyl-1H-pyrazol-4-yl)-3-fluorophenyl)-2-oxabicyclo[2.2.2]octan-1-yl)acetic acid] | 1.86
12 | CC(C)CCN(C)C(=O)OCc1c(-c2ccc(C34CCC(CC(=O)O)(CC3)OC4)cc2F)cnn1C [Example 45, 2-(4-(3-fluoro-4-(5-(((isopentyl(methyl)carbamoyl)oxy)methyl)-1-methyl-1H-pyrazol-4-yl)phenyl)-2-oxabicyclo[2.2.2]octan-1-yl)acetic acid] | 1.12

The remaining lines, values ahead:

Row | IC50 [µM] | Compound
13 | 0.194 | Cc1noc(-c2ccc(C34CCC(CC(=O)O)(CC3)OC4)cc2)c1NC(=O)O[C@H](C)C1CC1 [Example 11, 2-(4-(4-(4-((((R)-1-cyclopropyl-ethoxy)carbonyl)amino)-3-methylisoxazol-5-yl)phenyl)-2-oxabicyclo[2.2.2]octan-1-yl)acetic acid]
14 | 0.072 | Cc1noc(-c2ccc(C34CCC(CC(=O)O)(CC3)OC4)cc2)c1NC(=O)O[C@H](C)c1ccccc1Cl [Example 12, 2-(4-(4-(4-((((R)-1-(2-chlorophenyl)ethoxy)carbonyl)amino)-3-methylisoxazol-5-yl)phenyl)-2-oxabicyclo[2.2.2]octan-1-yl)acetic acid]
15 | 0.184 | Cc1ccccc1[C@@H](C)OC(=O)Nc1c(C)noc1-c1ccc(C23CCC(CC(=O)O)(CC2)OC3)cc1 [Example 13, 2-(4-(4-(3-methyl-4-((((R)-1-(o-tolyl)ethoxy)carbonyl)amino)isoxazol-5-yl)phenyl)-2-oxabicyclo[2.2.2]octan-1-yl)acetic acid]
16 | 0.119 | Cc1ccccc1[C@@H](C)OC(=O)Nc1c(C)noc1-c1ccc(C23CCC(CC(=O)O)(CC2)OC3)c(F)c1 [Example 17, 2-(4-(2-fluoro-4-(3-methyl-4-((((R)-1-(o-tolyl)ethoxy)carbonyl)amino)isoxazol-5-yl)phenyl)-2-oxabicyclo[2.2.2]octan-1-yl)acetic acid]
17 | 0.056 | Cc1noc(-c2ccc(C34CCC(CC(=O)O)(CC3)OC4)c(F)c2)c1NC(=O)O[C@H](C)c1ccccc1Cl [Example 18, 2-(4-(4-(4-((((R)-1-(2-chlorophenyl)ethoxy)carbonyl)amino)-3-methyl-isoxazol-5-yl)-2-fluorophenyl)-2-oxabicyclo[2.2.2]octan-1-yl)acetic acid]
18 | 0.095 | Cc1noc(-c2ccc(C34CCC(CC(=O)O)(CC3)OC4)cc2F)c1NC(=O)O[C@H](C)c1ccccc1 [Example 21, 2-(4-(3-fluoro-4-(3-methyl-4-((((R)-1-phenylethoxy)carbonyl)amino)isoxazol-5-yl)phenyl)-2-oxabicyclo[2.2.2]octan-1-yl)acetic acid]
19 | 0.064 | Cc1noc(-c2ccc(C34CCC(CC(=O)O)(CC3)OC4)cc2F)c1NC(=O)O[C@H](C)c1ccccc1Cl [Example 22, 2-(4-(4-(4-((((R)-1-(2-chlorophenyl)ethoxy)carbonyl)amino)-3-methylisoxazol-5-yl)-3-fluorophenyl)-2-oxabicyclo[2.2.2]octan-1-yl)acetic acid]
20 | 0.098 | Cc1ccccc1[C@@H](C)OC(=O)Nc1c(C)noc1-c1ccc(C23CCC(CC(=O)O)(CC2)OC3)cc1F [Example 23, 2-(4-(3-fluoro-4-(3-methyl-4-((((R)-1-(o-tolyl)ethoxy)carbonyl)amino)isoxazol-5-yl)phenyl)-2-oxabicyclo[2.2.2]octan-1-yl)acetic acid]
21 | 0.185 | Cc1cc(C23CCC(CC(=O)O)(CC2)OC3)ccc1-c1onc(C)c1NC(=O)O[C@H](C)c1ccccc1Cl [Example 27, 2-(4-(4-(4-((((R)-1-(2-chlorophenyl)ethoxy)carbonyl)amino)-3-methyl-isoxazol-5-yl)-3-methylphenyl)-2-oxabicyclo[2.2.2]octan-1-yl)acetic acid]
22 | 0.164 | C[C@@H](OC(=O)Nc1c(-c2ccc(C34CCC(CC(=O)O)(CC3)OC4)cc2)cnn1C)c1ccccc1Cl [Example 28, 2-(4-(4-(5-((((R)-1-(2-chlorophenyl)ethoxy)carbonyl)amino)-1-methyl-1H-pyrazol-4-yl)phenyl)-2-oxa-bicyclo[2.2.2]octan-1-yl)acetic acid]
23 | 0.115 | C[C@@H](OC(=O)Nc1c(-c2ccc(C34CCC(CC(=O)O)(CC3)OC4)cc2F)cnn1C)c1ccccc1Cl [Example 32, 2-(4-(4-(5-((((R)-1-(2-chlorophenyl)ethoxy)carbonyl)amino)-1-methyl-1H-pyrazol-4-yl)-3-fluorophenyl)-2-oxabicyclo[2.2.2]octan-1-yl)acetic acid]
24 | 0.537 | Cc1cc(C23CCC(CC(=O)O)(CC2)OC3)ccc1-c1cnn(C)c1NC(=O)O[C@H](C)c1ccccc1Cl [Example 33, 2-(4-(4-(5-((((R)-1-(2-chlorophenyl)ethoxy)carbonyl)amino)-1-methyl-1H-pyrazol-4-yl)-3-methylphenyl)-2-oxabicyclo[2.2.2]octan-1-yl)acetic acid]
25 | 0.583 | Cc1noc(-c2ccc(C34CCC(CC(=O)O)(CC3)CO4)cc2)c1NC(=O)O[C@H](C)C1CC1 [Example 47, 2-(1-(4-(4-((((R)-1-cyclopropylethoxy)carbonyl)amino)-3-methylisoxazol-5-yl)phenyl)-2-oxabicyclo[2.2.2]octan-4-yl)acetic acid]
26 | 0.354 | Cc1noc(-c2ccc(C34CCC(CC(=O)O)(CC3)CO4)cc2)c1NC(=O)O[C@H](C)c1ccccc1Cl [Example 48, 2-(1-(4-(4-((((R)-1-(2-chlorophenyl)ethoxy)carbonyl)amino)-3-methyl-isoxazol-5-yl)phenyl)-2-oxabicyclo[2.2.2]octan-4-yl)acetic acid]
